The record followed here is patent US20050171063A1, “Use of phosphono derivatives as anti-malarials” (priority 2003, published 2005).

The test system of assay [1] is P. falciparum. Nature of the assay: Effect of drug on P. falciparum in vitro: synchronized culture, Giemsa stained smear after 48 hrs. The format is cell-based, Plasmodium falciparum. The protocol:
Phosphono acetic acid was dissolved in normal saline and filter sterilized. The compound was added to the parasite culture at different concentrations ranging from 1-400 μm. The compound phosphono acetic acid was tested at the indicated doses using the experimental protocol as described below:
Protocol for Testing the Effect of Drug on P. falciparum for In Vitro Studies
The P. falciparum cultures were synchronized at first by sorbitol treatment. The compound of various concentrations was added to the 200 μl of synchronized P. falciparum culture (1% parasitemia). The parasitemia was checked by making Giemsa stained smear after 48 hrs of incubation at 37° C. The growth of P. falciparum was inhibited in dose-dependent manner, where 1 μM concentration yielded >90% inhibition (Plate 1). The bars represent the percent inhibition, whereas, the blue curve indicates the percentage of parasitemia.
Phosphono formic acid was dissolved in normal saline and filter sterilized. The compound was added to the parasite culture at different concentrations ranging from 1-10 μM. The growth of P. falciparum was inhibited in dose-dependent manner, where 10 μM concentration yielded −70% inhibition (FIG. 2).

The subject of assay [2] is P. berghei. Nature of the assay: Effect of PAA on survival of infected mice. The format is in vivo, BALB/c mice. As to conditions: dose in the range of about 1 to 50 mg/kg (embodiment). The procedure:
(§1) BALB/c mice (4-6 weeks old) were infected with 10^5 P. berghei parasites/mouse. After four days of infection, when phosphono acetic acid (dissolved in saline and filter sterilized) at a dose of either 25 mg/kg body weight, or 50 mg/kg body weight. The injection of phosphono acetic acid was continued, once a day, for four days. After the fourth day of injection, parasitemea was determined by making Geimsa stained blood smears from the mice.
Effect of PAA on Survival of Infected Mice
The compound of various concentrations was added to the 200 μl of synchronized P. falciparum culture (1% parasitemia). The parasitemia was checked by making Giemsa stained smear after 48 hrs of incubation at 37° C. The compound, PAA was used at the doses of 25 mg/kg and 50 mg/kg body weight. The control group indicates the group of mice infected with the parasite, but with no drug given.

In assay [3] the test system is P. berghei. As to the kind of experiment: Effect on P. berghei infected mice (in vivo model), parasitemia by Giemsa stained blood smears. The conditions noted are these: 50 mg/kg of body weight, once a day for four days. Also on record: species or system BALB/c mice. The protocol: Effect of Phosphono Acetic Acid on P. berghei Infected Mice (In Vivo Model)
as §1

Assay [4] concerns 3D7 strain of P. falciparum. Nature of the assay: Microscopy of Giemsa-stained slides, 3D7 strain of P. falciparum. The conditions noted are these: upon addition of PAA. The format is cell-based, Plasmodium falciparum. The text has this: The effect of Phosphono Acetic Acid on the 3D7 Strain of P. falciparum Giemsa-stained slides prepared for the experiment were examined under a microscope and represented in Plate 4. […] It is clear that PAA actually kills the parasite rather than simply inhibiting their growth (FIG. 4).

For `O=C(O)CP(=O)(O)O` [phosphono acetic acid], the “inhibition of growth of P. falciparum” value in assay [1] (1 μM concentration, 48 hrs, 1% parasitemia) is on record as more than 90%. The “inhibits growth of P. falciparum” value in assay [1] (range of about 1 to 5 μM (embodiment)) was “about 100%”. Further, in assay [2], the enhances the survival entry is recorded as “about 60%”. In addition, the “inhibition of growth of P. berghei” value in assay [3] is on record as −60%. The “effect on parasite seen under microscope” value in assay [4] is reported as “disintegrated trophozoltes are seen”.

As to `O=C(O)P(=O)(O)O` [phosphono formic acid], the “inhibition of growth of P. falciparum” value in assay [1] (10 μM concentration) is on record as −70%.
